According to US6995243B2, “Antibodies that recognize and bind phosphorylated human glucocorticoid receptor and methods of using same” (New York University, priority 2002, dated 2006):
Entries after “also recorded” stand apart in the source; their conditions may differ. Values belong to the compound of their own block, whether it stands above or below them.

How the values were obtained:
[1] = biological target: total GR (Homo sapiens, UniProt P04150); details: 12 h continuous hormone treatment, 100 nM
Experimental: FIGS. 7A–7C are immunoblots and graph showing the kinetics of S203 and S211 phosphorylation in response to Dex treatment. U2OS-hGR cells were treated with ethanol (−) or Dex (100 nM) for the time indicated. Whole cell lysates were prepared, normalized and analyzed by immunoblotting with phospho-S203, phospho-S211 or HA antibodies. Immunoblot images of GR phosphorylated at S203 and S211 in the first hour of Dex treatment (FIG. 7A) or throughout 12 h of continuous Dex treatment (FIG. 7B); the total GR in each sample was determined by immunoblotting for HA. In FIG. 7C, quantitative analysis of immunoblot results in panel B normalized to total GR detected by HA. The data shown are from a single experiment that is representative of at least three independent experiments. […]
Cell extracts or immunoprecipitates containing GR were separated by 10% SDS-polyacrylamide gel electrophoresis (PAGE) and were transferred to Immobilon paper (Millipore Corp., Bedford, Mass.) at 110V for 80 min in Tris-Glycine transfer buffer. […] Endogenous GR was detected using the N499 polyclonal antibody, raised against residues 1–499 of the human GR. […] Quantitative analysis of immunoblots was performed using the NIH image software package (version 1.62).

[2] = biological target: T1, GR (Homo sapiens, UniProt P04150); details: cited from earlier work
T1 sequence (P04150 1-777): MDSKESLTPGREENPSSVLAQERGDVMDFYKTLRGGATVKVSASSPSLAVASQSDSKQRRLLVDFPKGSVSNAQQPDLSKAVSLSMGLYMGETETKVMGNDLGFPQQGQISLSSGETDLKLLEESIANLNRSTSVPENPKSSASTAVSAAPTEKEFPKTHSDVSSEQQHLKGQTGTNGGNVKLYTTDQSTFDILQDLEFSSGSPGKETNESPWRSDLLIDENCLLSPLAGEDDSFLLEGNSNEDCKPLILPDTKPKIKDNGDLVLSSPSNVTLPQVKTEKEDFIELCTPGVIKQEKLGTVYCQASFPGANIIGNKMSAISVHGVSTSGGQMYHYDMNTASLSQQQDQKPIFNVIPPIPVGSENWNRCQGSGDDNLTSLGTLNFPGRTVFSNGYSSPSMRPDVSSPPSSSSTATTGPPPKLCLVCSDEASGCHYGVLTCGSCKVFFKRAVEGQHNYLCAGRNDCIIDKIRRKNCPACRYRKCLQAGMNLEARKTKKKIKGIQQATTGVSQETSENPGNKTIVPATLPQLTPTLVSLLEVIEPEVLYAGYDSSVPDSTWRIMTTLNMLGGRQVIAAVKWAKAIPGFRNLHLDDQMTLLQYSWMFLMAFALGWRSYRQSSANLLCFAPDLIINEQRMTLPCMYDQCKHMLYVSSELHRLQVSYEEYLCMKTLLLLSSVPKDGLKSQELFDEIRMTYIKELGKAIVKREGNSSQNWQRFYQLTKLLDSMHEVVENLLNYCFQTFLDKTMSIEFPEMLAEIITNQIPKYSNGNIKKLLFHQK

[3] = biological target: T2, human GR phosphorylated at S211 (Homo sapiens, UniProt P04150); experiment: Immunoblot of GR S211 phosphorylation in U2OS-hGR cell extracts; assay type: cell-based; details: 1 h; for GR phosphorylation at S211: ligand 100 nM, U2OS-hGR cells
T2 construct: expressed in transfected cells
T2 sequence (P04150 1-777): T1 sequence (P04150 1-777)
Experimental: In FIG. 6A, U20S-hGR were treated with ethanol (−) or the ligands indicated (100 nM) for 1 hour and whole cell extracts were prepared. For antagonism experiments, a 10-fold excess of RU486 (1 μM) or ZK299 (1 μM) were added simultaneously with 100 nM Dex for 1 h prior to cell lysis. Equal amounts of protein from each treatment were analyzed by immunoblotting with either phospho-S203, phospho-S211 or HA antibodies, reflective of the amount of total GR present in each lane.
Cells were placed on ice, washed twice in phosphate-buffer saline (PBS), lysed in 0.5 ml of buffer containing 50 mM HEPES, pH 7.5, 150 mM NaCl, 1 mM EDTA, 1 mM EGTA, 1 mM NaF, 1% Triton X-100, 10% glycerol and additional protease and phosphatase inhibitors: 1 mM PMSF, 20 mM β-glycerophosphate, 8 mM sodium pyrophosphate, 1 μg/ml leupeptin, pepstatin A and aprotinin (Roche). […] The soluble supernatants were normalized for total protein concentration using the Bio-Rad protein assay (Bio-Rad Laboratories, Hercules, Calif.) and the samples were boiled for 3 min in 2×SDS sample buffer and stored at −20° C.
Cell extracts or immunoprecipitates containing GR were separated by 10% SDS-polyacrylamide gel electrophoresis (PAGE) and were transferred to Immobilon paper (Millipore Corp., Bedford, Mass.) at 110V for 80 min in Tris-Glycine transfer buffer. The membranes were blocked overnight in 5% bovine serum albumin (BSA) in Tris-buffered saline, pH 7.4 (TBS) (blocking solution) at 4° C., then were incubated in the blocking buffer with primary antibody at room temperature (RT) for 2–4 h using 1:1,000 and 1:10,000 dilution of serum for phospho-S211 (Ab353) and phospho-S203 (Ab211), respectively. […] The membranes were washed three times for 10 min in TBS/0.1% Triton X-100 and twice in TBS and incubated for 1 h at RT with 0.2 μg/ml protein A conjugated to horseradish peroxidase (HRP) (Kirkegaard and Perry Laboratories, Gaithersburg, Md.). For blots using the anti-HA-tag monoclonal antibody (α-HA; Roche), an HRP-conjugated goat-anti-mouse IgG secondary antibody was used. Blots were then washed three times for 10 min in TBS-0.1% Triton X-100, twice in TBS and developed using enhanced chemiluminescence (ECL) according to manufacturer's instructions (Amersham Pharmacia Biotech Inc., Piscataway, N.J.).

[4] = test system: GR-mediated transcriptional activation; experiment: MMTV-luciferase reporter GR transcriptional activation in U2OS-hGR cells; assay type: cell-based, human; details: ligand 100 nM, 1 h
Experimental: In FIG. 6B, U2OS-hGR cells were transiently transfected with the MMTV-luciferase reporter construct along with pCMV-lacZ as an internal control. After 16 h, the cells were treated with ligands indicated (100 nM) for 1 h, conditions identical to those used for the immunoblot analysis, and luciferase activity determined.

[5] = biological target: T3, human GR phosphorylated at S203 (Homo sapiens, UniProt P04150); details: ligand 100 nM, 1 h, U2OS-hGR cells
T3 sequence (P04150 1-777): T1 sequence (P04150 1-777)
Experimental: In FIG. 6A, U20S-hGR were treated with ethanol (−) or the ligands indicated (100 nM) for 1 hour and whole cell extracts were prepared. For antagonism experiments, a 10-fold excess of RU486 (1 μM) or ZK299 (1 μM) were added simultaneously with 100 nM Dex for 1 h prior to cell lysis. Equal amounts of protein from each treatment were analyzed by immunoblotting with either phospho-S203, phospho-S211 or HA antibodies, reflective of the amount of total GR present in each lane. In FIG. 6B, U2OS-hGR cells were transiently transfected with the MMTV-luciferase reporter construct along with pCMV-lacZ as an internal control. After 16 h, the cells were treated with ligands indicated (100 nM) for 1 h, conditions identical to those used for the immunoblot analysis, and luciferase activity determined.
Cells were placed on ice, washed twice in phosphate-buffer saline (PBS), lysed in 0.5 ml of buffer containing 50 mM HEPES, pH 7.5, 150 mM NaCl, 1 mM EDTA, 1 mM EGTA, 1 mM NaF, 1% Triton X-100, 10% glycerol and additional protease and phosphatase inhibitors: 1 mM PMSF, 20 mM β-glycerophosphate, 8 mM sodium pyrophosphate, 1 μg/ml leupeptin, pepstatin A and aprotinin (Roche). Lysates were centrifuged at 12,000 rpm for 15 min at 4° C. […]

SMILES: C[C@@H]1C[C@H]2[C@@H]3CCC4=CC(=O)C=C[C@]4(C)[C@@]3(F)[C@@H](O)C[C@]2(C)[C@@]1(O)C(=O)CO [Dex, dexamethasone]
Reduction of total GR [1]: ~80%

SMILES: C=C1[C@@H](O)[C@@H]2O[C@]3(CC[C@H](/C=C/[C@@H](C)[C@@H]4CC(C)=C[C@@]5(O[C@H](C[C@@](C)(O)C(=O)O)CC[C@H]5O)O4)O3)CC[C@H]2O[C@@H]1[C@@H](O)C[C@H](C)[C@H]1O[C@@]2(CCCCO2)CC[C@H]1C [okadaic acid]
Effect on GR reported in the literature [2]: results in GR hyperphosphorylation

SMILES: C[C@]12C=CC(=O)C=C1CC[C@@H]1[C@@H]2[C@@H](O)C[C@@]2(C)[C@H]1CC[C@]2(O)C(=O)CO [Prednisolone]
GR phosphorylation at S211 [3]: promoted S211 phosphorylation; also recorded: induced robust GR phosphorylation at S211
GR transcriptional activation (MMTV-luciferase) [4]: pattern mirrored in the GR transcriptional activation assay

Blocking of Dex-dependent GR phosphorylation ([3]; 10-fold molar excess (1 μM) added with 100 nM Dex): not as effective
GR phosphorylation at S211 [3]: almost no effect
GR phosphorylation at S203 [5]: almost no effect
SMILES: CN(C)c1ccc([C@H]2C[C@]3(C)[C@@H](CC[C@]3(O)CCCO)[C@@H]3CCC4=CC(=O)CCC4=C32)cc1 [ZK299]
